Where “and” joins values, the source holds several entries; their conditions need not be identical. Equal entries are not always repeated. Toxic doses and inconclusive results are not listed. The calls were made as follows: active = survival T/C of 150% or more; inactive = T/C below 125% in these data.
Tested on: CD2F1 mice, L1210 leukemia ip, survival T/C
Assay: NCI In Vivo Anticancer Drug Screen. Data for tumor model L1210 Leukemia (intraperitoneal) in CD2F1 (CDF1) mice
Conditions: higher = longer survival
Method in brief: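 Implant tumor; dose compound or vehicle; measure endpoint in both groups; report treated divided by control.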

[1] = endpoint: mean survival time, dose: 100.0 mg/kg/injection, schedule: Q04DX003 (ip), vehicle: saline with Tween-80
[2] = endpoint: mean survival time, dose: 200.0 mg/kg/injection, schedule: Q04DX003 (ip), vehicle: saline with Tween-80
[3] = endpoint: mean survival time, dose: 400.0 mg/kg/injection, schedule: Q04DX003 (ip), vehicle: saline with Tween-80
[4] = endpoint: mean survival time, dose: 100.0 mg/kg/injection, schedule: Q01DX001 (ip), vehicle: saline with Tween-80
[5] = endpoint: mean survival time, dose: 200.0 mg/kg/injection, schedule: Q01DX001 (ip), vehicle: saline with Tween-80
[6] = endpoint: mean survival time, dose: 400.0 mg/kg/injection, schedule: Q01DX001 (ip), vehicle: saline with Tween-80
[7] = endpoint: mean survival time, dose: 100.0 mg/kg/injection, schedule: Q01DX009 (ip), vehicle: other
[8] = endpoint: mean survival time, dose: 200.0 mg/kg/injection, schedule: Q01DX009 (ip), vehicle: other
[9] = endpoint: mean survival time, dose: 400.0 mg/kg/injection, schedule: Q01DX009 (ip), vehicle: other

Measured: T/C

Nc1nc(N)c2c(=O)c(CNc3ccc(C(=O)NC(CCC(=O)O)C(=O)O)cc3)c[nH]c2n1 (stereo not drawn)
inactive: endpoint: mean survival time, dose: 0.25 mg/kg/injection, schedule: Q01DX005 (ip), vehicle: sodium bicarbonate 104 % of control | endpoint: mean survival time, dose: 0.5 mg/kg/injection, schedule: Q01DX005 (ip), vehicle: sodium bicarbonate 119 % of control and 100 % of control | endpoint: mean survival time, dose: 1.0 mg/kg/injection, schedule: Q01DX005 (ip), vehicle: sodium bicarbonate 113 % of control and 100 % of control | endpoint: mean survival time, dose: 2.0 mg/kg/injection, schedule: Q01DX005 (ip), vehicle: sodium bicarbonate 98 % of control and 106 % of control | endpoint: mean survival time, dose: 4.0 mg/kg/injection, schedule: Q01DX005 (ip), vehicle: sodium bicarbonate 91 % of control and 104 % of control | endpoint: mean survival time, dose: 16.0 mg/kg/injection, schedule: Q01DX005 (ip), vehicle: sodium bicarbonate 98 % of control

CC(C)=CC(C)OC(=O)N(C)C (stereo not drawn)
inactive: [1] 97 % of control | [2] 94 % of control

CN(C)c1nc(-c2ccncc2)nc(N2CCOCC2)n1
inactive: endpoint: mean survival time, dose: 100.0 mg/kg/injection, schedule: Q04DX002 (ip), vehicle: saline with Tween-80 92 % of control

CCc1cc(CSc2ccc(Cl)cc2)ccc1N
inactive: [1] 102 % of control | [2] 100 % of control | [3] 98 % of control

CCOC(=O)CCC(NC(=O)c1ccc(N(C)S(=O)(=O)c2ccc(C)cc2)c(Cl)c1Cl)C(=O)OCC (stereo not drawn)
inactive: [1] 105 % of control | [2] 91 % of control | [3] 94 % of control

O=C(O)CC(Nc1sc([N+](=O)[O-])cc1[N+](=O)[O-])C(=O)O (stereo not drawn)
inactive: [4] 98 % of control | [5] 105 % of control | [6] 102 % of control

COC1OCC(OS(C)(=O)=O)C(OS(C)(=O)=O)C1OS(C)(=O)=O (stereo not drawn)
inactive: [4] 96 % of control | endpoint: mean survival time, dose: 100.0 mg/kg/injection, schedule: Q01DX009 (ip), vehicle: saline with Tween-80 95 % of control and 100 % of control | [5] 97 % of control | endpoint: mean survival time, dose: 200.0 mg/kg/injection, schedule: Q01DX009 (ip), vehicle: saline with Tween-80 96 % of control and 94 % of control | [6] 100 % of control | endpoint: mean survival time, dose: 400.0 mg/kg/injection, schedule: Q01DX009 (ip), vehicle: saline with Tween-80 93 % of control and 96 % of control

CC(=O)OC1CC2CC1C1C=CCC21 (stereo not drawn)
inactive: [4] 97 % of control | [5] 95 % of control | [6] 100 % of control

Oc1ccc(SSc2ccc(O)cc2)cc1
inactive: [7] 98 % of control | [8] 101 % of control | [9] 104 % of control

CC(C)[Si]1(C(C)C)OCC2OC(c3cn(C)c(=O)n(C)c3=O)C(OC(=S)n3ccnc3)C2O[Si](C(C)C)(C(C)C)O1 (stereo not drawn)
inactive: endpoint: median survival time, dose: 12.5 mg/kg/injection, schedule: Q01DX005 (ip), vehicle: distilled water + Tween-80 98 % of control | endpoint: median survival time, dose: 25.0 mg/kg/injection, schedule: Q01DX005 (ip), vehicle: distilled water + Tween-80 98 % of control | endpoint: median survival time, dose: 50.0 mg/kg/injection, schedule: Q01DX005 (ip), vehicle: distilled water + Tween-80 92 % of control | endpoint: median survival time, dose: 100.0 mg/kg/injection, schedule: Q01DX005 (ip), vehicle: distilled water + Tween-80 92 % of control | endpoint: median survival time, dose: 200.0 mg/kg/injection, schedule: Q01DX005 (ip), vehicle: distilled water + Tween-80 92 % of control

O=C(O)c1nn2c(=O)[nH]c3ccccc3c2c1C(=O)O
inactive: endpoint: mean survival time, dose: 12.5 mg/kg/injection, schedule: Q04DX002 (ip), vehicle: saline with Tween-80 90 % of control | endpoint: mean survival time, dose: 25.0 mg/kg/injection, schedule: Q04DX002 (ip), vehicle: saline with Tween-80 94 % of control | endpoint: mean survival time, dose: 50.0 mg/kg/injection, schedule: Q04DX002 (ip), vehicle: saline with Tween-80 87 % of control

OCCN1CCSC1=S
inactive: [1] 101 % of control | [2] 97 % of control | [3] 92 % of control

COc1ccc(OC)c(C(O)CCc2cccc(N)c2)c1 (stereo not drawn)
inactive: endpoint: mean survival time, dose: 100.0 mg/kg/injection, schedule: Q04DX002 (ip), vehicle: Klucel (hydroxypropylcellulose) (HPC) 93 % of control | endpoint: mean survival time, dose: 200.0 mg/kg/injection, schedule: Q04DX002 (ip), vehicle: Klucel (hydroxypropylcellulose) (HPC) 93 % of control | endpoint: mean survival time, dose: 400.0 mg/kg/injection, schedule: Q04DX002 (ip), vehicle: Klucel (hydroxypropylcellulose) (HPC) 97 % of control

O=C(C[P+](c1ccccc1)(c1ccccc1)c1ccccc1)C[P+](c1ccccc1)(c1ccccc1)c1ccccc1
inactive: endpoint: mean survival time, dose: 100.0 mg/kg/injection, schedule: Q01DX001 (ip), vehicle: saline 97 % of control | endpoint: mean survival time, dose: 200.0 mg/kg/injection, schedule: Q01DX001 (ip), vehicle: saline 95 % of control | endpoint: mean survival time, dose: 400.0 mg/kg/injection, schedule: Q01DX001 (ip), vehicle: saline 92 % of control

CCCCCCCCCCCSSCCCCCCCCCCC
inactive: [7] 101 % of control | [8] 100 % of control | [9] 111 % of control

CCC(C(=O)O)C(=O)O.[NH2-].[NH2-].[Pt+2]
inactive: endpoint: mean survival time, dose: 12.5 mg/kg/injection, schedule: Q04DX003 (ip), vehicle: saline 101 % of control | endpoint: mean survival time, dose: 200.0 mg/kg/injection, schedule: Q04DX003 (ip), vehicle: saline 87 % of control | endpoint: median survival time, dose: 3.12 mg/kg/injection, schedule: Q01DX009 (ip), vehicle: saline 108 % of control | endpoint: median survival time, dose: 100.0 mg/kg/injection, schedule: Q01DX009 (ip), vehicle: saline 95 % of control

C=C(C)[C@]12CC(C)C34OC(/C=C\C=C\CCCCCCCCC)(O[C@@H]1[C@@H]3[C@@H]1O[C@]1(CO)[C@@H](O)[C@]1(O)C(=O)C(C)=C[C@@H]41)O2 (stereo partly drawn)
inactive: endpoint: mean survival time, dose: 0.01 mg/kg/injection, schedule: Q01DX009 (ip), vehicle: distilled water + alcohol 102 % of control | endpoint: mean survival time, dose: 0.02 mg/kg/injection, schedule: Q01DX009 (ip), vehicle: distilled water + alcohol 94 % of control | endpoint: mean survival time, dose: 0.04 mg/kg/injection, schedule: Q01DX009 (ip), vehicle: distilled water + alcohol 100 % of control | endpoint: mean survival time, dose: 0.09 mg/kg/injection, schedule: Q01DX009 (ip), vehicle: alcohol 95 % of control | endpoint: mean survival time, dose: 0.09 mg/kg/injection, schedule: Q01DX009 (ip), vehicle: distilled water + alcohol 96 % of control | endpoint: mean survival time, dose: 0.19 mg/kg/injection, schedule: Q01DX009 (ip), vehicle: alcohol 100 % of control | endpoint: mean survival time, dose: 0.38 mg/kg/injection, schedule: Q01DX009 (ip), vehicle: alcohol 101 % of control | endpoint: mean survival time, dose: 0.75 mg/kg/injection, schedule: Q01DX009 (ip), vehicle: alcohol 112 % of control | endpoint: mean survival time, dose: 1.5 mg/kg/injection, schedule: Q01DX009 (ip), vehicle: alcohol 117 % of control
